Bounds are passed on as bounds.

As for `O=C(O)CCc1cn(Cc2ccc(OCc3ccc4ccccc4n3)nc2)nc1-c1ccccc1`, the melting point – broadly, the temperature of the solid-liquid transition – fell in the range of 166 to 167 °C.
The figure for `COC(=O)[C@@H]1C[C@H](OC(=N)C(Cl)(Cl)Cl)C(=O)[C@H]2[C@@]1(C)CC[C@H]1C(=O)O[C@H](c3ccoc3)C[C@]21C` is 120 to 123 °C.
The value for `CC(C)CC(=O)c1ccc(Cl)cc1` was 39 to 40 °C.
In turn, `CCOC(=O)NNC(=O)Nc1c(F)cc(F)cc1F` showed a melting point of 177 to 178 °C.
The value for `CC(=O)OCc1ccc2cc(C(=O)O)ccc2c1` was 180 to 190 °C; that for `COc1ccc(Cn2c(S)nc3ccccc32)cc1` was 199 to 200 °C; that for `CCC(CC1(c2ccc(Cl)c(Cl)c2)CCC1)=NO` was 106 to 110 °C.
The value for `COC(=O)c1ccc(COc2ccc3cc(-c4ccc(-c5ccccc5)n4-c4ccccc4)ccc3c2)cc1` was 218 to 219 °C; that for `CCOC(=O)COc1cc(C(F)(F)F)c2c(=O)c(-c3ccccc3)coc2c1` was 139 to 140 °C.
The figure for `Nc1nnc(N2CCN(C(=O)OCc3ccccc3)CC2)[nH]1` is 157 to 159 °C; for `O=C(O)c1ccc(-c2ccc3oc([N+](=O)[O-])c(-c4ccccc4)c3c2)cc1` it is 259 to 261 °C; for `CCCCCCOC(=O)Nc1ccc2c(c1)NC(=O)C2(C)C` it is 180 to 183 °C.
Regarding `O=C1c2ccccc2N2CCCN3CCN1C32` (configuration not stated), the melting point was 144 to 146 °C.
The compound `C#CC(C)N(C)c1nc2ccc(OC(F)(F)F)cc2s1` (configuration not stated) registered a melting point of 42 to 43 °C.
The figure for `c1ccc(CNc2nc(-n3cncn3)nc3ccccc23)cc1` is 193 to 195 °C.
The value for `COc1ccc(C(=O)Nc2ccccc2)cc1NCc1ccc(C)cc1` was 184 to 186 °C; that for `CNC1(c2ccccc2)CC=C(c2[nH]c3ccccc3c2CCc2ccncc2)CC1` (configuration not stated) was 168 to 172 °C; that for `CCOC(=O)C(Cc1ccc2ccccc2n1)(OC1CCCCO1)C(=O)OCC` (configuration not stated) was 75 to 78 °C.
The value for `ONCc1ccccc1` was 56 to 57 °C; that for `CC1(C)CC(=C(c2ccccc2)c2ccc(OCCO)cc2)CC(C)(C)C1` was 131 to 132 °C; that for `CN1C(c2ccc(C#N)cc2)=NC(C(F)(F)F)(C(F)(F)F)C1NC(=O)c1ccc(CF)cc1` (configuration not stated) was 189 to 190 °C.
`CC(C)N(CCO)C(=O)c1noc2ccccc12`: the melting point was in the range of 92 to 94 °C.
The value for `COC(=O)c1c(C)nc2c(c1N)c1cc(Cl)ccc1n2C` was 203 to 211 °C.
The value for `CCn1c(=O)c(C(=O)NN)c(O)c2ccc(C)nc21` was 211 to 213 °C.
The value for `O=C(O)Cc1c(C(=O)c2ccc(Cl)cc2)[nH]c2ccccc12` was 221 to 224 °C; that for `COc1ccc(CC(=O)Nc2nc3c(ncn3C3CC(O)C(COC(c4ccccc4)(c4ccc(OC)cc4)c4ccc(OC)cc4)O3)c(=O)[nH]2)cc1` (configuration not stated) was 148 to 156 °C; that for `Cc1ccc2cc(-c3ccc4ccc5cccc6ccc3c4c56)ccc2n1` was 133 °C.
With `C=CCc1cc(C(C)=O)c(O)cc1OCCCCCC(N)=O`, the melting point was in the range of 122 to 124 °C.
For `O=C(CCS(=O)(=O)CCOCCc1ccccc1)NCCc1ccc(O)c2[nH]c(=O)sc12`, the melting point was in the range of 142 to 144 °C.
The value for `Cc1cccc(C(=O)O)c1NC(=S)Cc1ccccc1` was 148 to 150 °C.
The figure for `CCCCc1nc2cccc(C(=O)OCC)c2n1Cc1ccc(-c2ccccc2-c2nnn[nH]2)cc1` is 138 to 139 °C.
The value for `CC1(C)OC(=O)Nc2ccc(-c3cccc(C#N)c3F)cc21` was 192 to 198 °C; that for `Cc1ccc(-c2ccc3c(c2)C=C(C(=O)O)CCO3)cc1` was 255 to 256 °C.
Turning to `c1ccc(CCNc2nc3ccccc3c3[nH]c(C4CCCC4)nc23)cc1`, the melting point was in the range of 95 to 97 °C.
The figure for `CC1(C)CCC(C)(C)c2cc(OCc3ccc(C(=O)O)cc3)ccc21` is over 330 °C; for `Cc1ccc(COC2C(Sc3ccccc3)OC(C)C(OC(=O)c3ccccc3)C2OC(=O)c2ccccc2)cc1` (configuration not stated) it is 81 to 83 °C.
The figure for `CC(=O)Oc1ccc2c(c1)C(C)c1cc(OC(C)=O)ccc1-2` is 139 to 140 °C; for `CC(C)n1nc(-c2sc(NC(=O)c3ccc(F)cc3)nc2-c2ccccc2)ccc1=O` it is 225 to 226 °C.
On to `COC(=O)c1ccc(Cc2c(Cl)n(C)c3ccc(CC(C)NC(=O)N(C)C)cc23)c(OC)c1` (configuration not stated), for which the melting point was determined as 148 °C.
The value for `COc1cc(C(=O)Oc2ccc3c(OC(=O)c4ccc(O)c(OC)c4)c4cc(OC(=O)c5ccc(O)c(OC)c5)ccc4cc3c2)ccc1O` was 206 °C.
The compound `Nc1c(Cl)c(C(F)(F)F)nn1-c1c(Cl)cc(C(F)(F)F)cc1Cl` returned a melting point of 99 to 100 °C.
The figure for `CCOC(=O)C1COc2c(OC)ccc([N+](=O)[O-])c2C1` (configuration not stated) is 66 to 68 °C; for `CC1=C(C(=O)c2ccc3c(c2)CCN(C(N)=O)C3)C(C)(C)CCC1` it is 86.4 to 87.6 °C.
The figure for `NC(=O)c1c(N)oc2c(-c3ccccc3)cccc2c1=O` is 233 to 235 °C.
The figure for `CC(=O)C1(c2ccc(Br)cc2)C=CC=CC1` (configuration not stated) is 126 to 128 °C; for `CCSc1cc(C)nc(SCC)c1NC(=O)CSc1nc2cccc(C(=O)OC)c2o1` it is 168 to 169 °C.
`Cc1ccc(S(=O)O)cc1` gave a melting point of 55 to 57 °C.
The figure for `Cc1oc(-c2ccccc2)nc1COc1ccc(COc2ncccc2CC(=O)O)cc1` is 144 to 145 °C; for `CNC(=O)C(NC(=O)C(CC(C)C)C(CC(=O)OC)SC(C)=O)C(C)OCc1ccccc1` (configuration not stated) it is 105 to 106 °C.
The value for `CN(C)c1ccc(C(N)P(O)O)cc1` (configuration not stated) was 223 to 224 °C; that for `CCn1cc(C(=O)O)c(=O)c2cnc(N3CCN(Cc4ccc(N)cc4)CC3)nc21` was 198 to 201 °C; that for `COc1ccc(N2CCN(Cc3n[nH]c4ccccc34)CC2)nc1` was 132 to 134 °C.
The figure for `CC(C)C(=O)N[C@H]1CC[C@H](CCN2CCC(c3cccc4c3CCO4)CC2)CC1` is 212 °C; for `O=C(Oc1c(Cl)cc(Cl)c(Cl)c1Cl)c1ccc(CCl)cc1` it is 143 to 149 °C; for `CC(=O)C1=C(C)N=C(c2ccccc2)NC1c1cccc([N+](=O)[O-])c1` (configuration not stated) it is 154 to 155 °C.
`CCCn1c(=O)c2[nH]c(-c3nn(CC(=O)Nc4ccc(Cl)cc4)c(C)c3Br)nc2n(CCC)c1=O` yielded a melting point of 298 to 299 °C.
Regarding `NC(=O)COc1cc(C(F)(F)F)cc(C(F)(F)F)c1`, the melting point was 139 to 141 °C.
The figure for `Cc1nc(N2CCN(CCCC(F)(F)F)C2=O)sc1C(=O)NCc1ccncc1` is 178 to 181 °C; for `CS(=O)(=O)Cc1cccc(C(F)(F)F)c1[N+](=O)[O-]` it is 110 to 113 °C; for `CCOC(=O)c1c(N2CCN(C(=O)c3cccs3)CC2)c2cnccc2n(Cc2ccc(F)cc2)c1=O` it is 132 °C.
The value for `COc1ccc(-c2ccc(C#CC(=O)O)s2)cc1C(C)(C)C` was 124 to 126 °C; that for `COC(=O)c1nc(NC(=O)c2ccccn2)ccc1Oc1nc(OC)cc(OC)n1` was 146 to 150 °C.
